The text below walks through data of PubChem BioAssay (NCI).

Some test systems named below: M14 melanoma; ACHN renal; U251 CNS; NCI-H460 lung; MOLT-4 leukemia; UACC-257 melanoma; SK-MEL-5 melanoma; SNB-19 CNS; SN12C renal.
What all share (experiment): growth of human tumour cells (NCI), 48 h

Structures are written as SMILES. Values joined by “and” are separate entries in the source; they are usually repeats but may differ in a detail not shown here. Equal entries are not always repeated.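 Protocol summary: plate cells (96-well), add compound at 5 concentrations, incubate 48 h, interpolate endpoints linearly. GI50: concentration for 50% inhibition of growth. TGI: concentration producing complete growth inhibition.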

Regarding `CCCCCCCCCC1C(C)c2c([nH]c3ccccc23)C2C(=O)N(c3ccccc3)C(=O)C21` (centres undefined), the TGI came to 28.7 µM in the assay on M14 melanoma; 22.8 µM in the assay on ACHN renal; 26.7 µM in the assay with U251 CNS; 13.7 µM with NCI-H460 lung; 9.44 µM in the assay on MOLT-4 leukemia; 29.3 µM in the assay with UACC-257 melanoma. The compound also came in with a TGI in the assay on SK-MEL-5 melanoma of 31.6 µM.
For the compound `O=C(O)CCCCCO`, the TGI in the assay with SNB-19 CNS, in the assay on SN12C renal, with M14 melanoma, with ACHN renal, in the assay with U251 CNS and in the assay with NCI-H460 lung was more than 100 µM each time. Also, the TGI in the assay with MOLT-4 leukemia, with UACC-257 melanoma and in the assay with SK-MEL-5 melanoma was more than 100 µM in each case.
Regarding `Nc1nc(N)c(N=O)c(Nc2ccc(I)cc2)n1`, the TGI is more than 100 µM with SNB-19 CNS; 49.2 µM with SN12C renal; 56.6 µM in the assay on M14 melanoma; more than 100 µM in the assay on ACHN renal; more than 100 µM with U251 CNS; more than 100 µM in the assay with NCI-H460 lung. In addition, the TGI in the assay with MOLT-4 leukemia was determined as 65.9 µM; in the assay on UACC-257 melanoma it was 70.1 µM; with SK-MEL-5 melanoma it was 26.3 µM.
Take `COc1cc(C(=O)C/C(CCC(=O)Nc2ccc(Cl)cc2Cl)=N/NC(=O)C(N)=O)ccc1O`: the TGI in the assay with SNB-19 CNS, in the assay with SN12C renal, with M14 melanoma, in the assay with ACHN renal, in the assay with U251 CNS and with NCI-H460 lung was more than 100 µM each time. Further, the TGI with MOLT-4 leukemia, with UACC-257 melanoma and in the assay on SK-MEL-5 melanoma was more than 100 µM throughout.
As to `Cc1c(C(=O)/C=C/c2ccccc2Cl)[n+](=O)c2ccccc2n1[O-]`, the TGI in the assay on SNB-19 CNS stood at 31 µM; in the assay with SN12C renal it was 28.4 µM; in the assay on M14 melanoma, 29 µM; with ACHN renal, 31.9 µM; with U251 CNS it was 27.4 µM; in the assay with NCI-H460 lung it was 24.4 µM. In addition, the TGI with MOLT-4 leukemia came to 42 µM; with UACC-257 melanoma, 27.2 µM; with SK-MEL-5 melanoma, 31.9 µM.
For the compound `O=C(CC(=O)Nc1ccccc1O)Nc1ccccc1O`, the TGI is more than 100 µM in the assay with SNB-19 CNS; 33.8 µM with SN12C renal; 29.7 µM in the assay with M14 melanoma; 22.4 µM in the assay on ACHN renal; more than 100 µM with U251 CNS; 66.3 µM in the assay with NCI-H460 lung. The figures for the TGI in the assay with MOLT-4 leukemia, in the assay with UACC-257 melanoma and in the assay on SK-MEL-5 melanoma were more than 100 µM, 30 µM and 22 µM, respectively.
`CCOC(=O)C(Cc1ccccc1)NC(=O)OC(C)(C)C` (centres undefined): the TGI in the assay on SNB-19 CNS, in the assay on SN12C renal, in the assay on M14 melanoma, in the assay with ACHN renal, in the assay with U251 CNS and with NCI-H460 lung was more than 100 µM each time. The TGI in the assay on MOLT-4 leukemia and in the assay on UACC-257 melanoma was more than 100 µM throughout.
`CC1=C(C(=O)CC(=O)C(=O)Nc2ccccc2)Sc2ccccc2N1`: the TGI in the assay with SNB-19 CNS, in the assay on SN12C renal, in the assay on M14 melanoma, with ACHN renal, in the assay with U251 CNS and with NCI-H460 lung was more than 100 µM each time. Also, the TGI with MOLT-4 leukemia, in the assay with UACC-257 melanoma and with SK-MEL-5 melanoma was more than 100 µM in each case.
Take `Nc1ncnc2c(C3OC(CO)C(O)C3O)scc12` (centres undefined): the GI50 was 4.92 µM in the assay with SNB-19 CNS; 0.105 µM with SN12C renal; 0.127 µM in the assay with ACHN renal; 2.45 µM in the assay on U251 CNS; 98.9 nM in the assay on MOLT-4 leukemia; 1.11 µM in the assay on UACC-257 melanoma. Further, the GI50 with SK-MEL-5 melanoma is 0.0781 µM. In addition, the TGI in the assay with SNB-19 CNS was 65.6 µM; in the assay with SN12C renal, 4.93 µM and 4.07 µM; in the assay on M14 melanoma, 0.217 µM and 0.277 µM; in the assay with ACHN renal it was 1.9 µM and 3.66 µM; in the assay with U251 CNS, more than 100 µM; in the assay with NCI-H460 lung, 0.554 µM and 1.12 µM. The TGI in the assay with MOLT-4 leukemia was 1.99 µM and 1.9 µM; with SK-MEL-5 melanoma it was 4.68 µM and 2.64 µM.
Consider `CCOC(=O)N1N=NC2C3OC(C[C@@]3(C#N)OC(C)=O)[C@H]21` (some centres undefined), for which the TGI with SNB-19 CNS, with SN12C renal, with M14 melanoma, in the assay on ACHN renal, with U251 CNS and in the assay with NCI-H460 lung was more than 100 µM in each case. Further, the TGI with MOLT-4 leukemia, in the assay on UACC-257 melanoma and in the assay with SK-MEL-5 melanoma was more than 100 µM throughout.
Take `COc1cc2ccnc(-c3c4ccccc4c(N)c4c(OC)c(OC)ccc34)c2cc1OC`: the TGI with SNB-19 CNS is 15.4 µM; in the assay on SN12C renal, 14.1 µM; in the assay on ACHN renal it was 14 µM; with U251 CNS, 14 µM; with NCI-H460 lung, 6.53 µM; with MOLT-4 leukemia, 9.53 µM. In addition, the TGI worked out at 4.37 µM in the assay with UACC-257 melanoma and 12.3 µM in the assay on SK-MEL-5 melanoma.
As for `CCC[CH2][Ge]([CH2]CCC)([CH2]CCC)[O]C(=O)C(OC)c1ccccc1` (centres undefined), the GI50 with SNB-19 CNS was more than 93.9 µM; with SN12C renal, 46.4 µM; in the assay with M14 melanoma it was 16.7 µM; with ACHN renal, 25.2 µM; in the assay on U251 CNS, 31.4 µM; with NCI-H460 lung it was 22.1 µM. The values for the GI50 with MOLT-4 leukemia, in the assay on UACC-257 melanoma and with SK-MEL-5 melanoma were 3740 nM, 16.7 µM and 17.5 µM, respectively. For the same compound, the TGI was more than 100 µM in the assay with SNB-19 CNS; more than 100 µM in the assay on SN12C renal; 49.8 µM with M14 melanoma; more than 75.2 µM in the assay with ACHN renal; more than 100 µM in the assay with U251 CNS; more than 100 µM with NCI-H460 lung. The TGI was more than 60.6 µM in the assay on MOLT-4 leukemia, more than 100 µM in the assay on UACC-257 melanoma and more than 63.1 µM in the assay on SK-MEL-5 melanoma.
